This note sets out measurements from patent publication US20060293307A1, “Oxazolidinone derivatives as antimicrobials” (priority 2002, published 2006).

The MIC is the least concentration at which growth counts as inhibited.

The test system of test [1] is M. tuberculosis V-591. The experiment in a line: MIC against M. tuberculosis strains, agar dilution. In kind it is cell-based, Mycobacterium tuberculosis. The following applies: S. No. 13 Mt-, Middle Brook 7H10 + OADC, 37° C., 14-21 days. On the technique in general: In agar dilution the substance is mixed into plates at graded concentrations.
The subject of test [2] is M. avium intracellulare 356/97. The experiment in a line: MIC against MAC strains, agar dilution. It counts as cell-based. To be noted: S. No. 10 Mai-1, M. avium intracellulare 356/97; Middle Brook 7H10 + OADC, 37° C., 14-21 days.
The test system of test [3] is M. tuberculosis M-149. The experiment in a line: MIC against M. tuberculosis strains, agar dilution. In kind it is cell-based, Mycobacterium tuberculosis. To be noted: S. No. 15 Mt-, Middle Brook 7H10 + OADC, 37° C., 14-21 days.
Test [4] has as its system M. tuberculosis PC. The experiment in a line: MIC against M. tuberculosis strains, agar dilution. The following applies: S. No. 18 Mt-, Middle Brook 7H10 + OADC, 37° C., 14-21 days. In kind it is cell-based, Mycobacterium tuberculosis.
Test [5] relates to M. tuberculosis M-66. Briefly: MIC against M. tuberculosis strains, agar dilution. In kind it is cell-based, Mycobacterium tuberculosis. To be noted: S. No. 08 Mt-, Middle Brook 7H10 + OADC, 37° C., 14-21 days.
The subject of test [6] is M. intracellulare ATCC 35761. Briefly: MIC against MAC strains, agar dilution. In kind it is cell-based. The following applies: S. No. 07 Mi-2, M. intracellulare ATCC 35761; Middle Brook 7H10 + OADC, 37° C., 14-21 days.

As to `NNC(=O)c1ccncc1` [INH], the MIC in test [1] is over 32 µg/mL; in test [2], 4.0 µg/mL; in test [3], 8.0 µg/mL; in test [4], 0.25 µg/mL; in test [5] it was over 32 µg/mL; in test [6], 4.0 µg/mL.
Turning to `CO[C@H]1/C=C/O[C@@]2(C)Oc3c(C)c(O)c4c(O)c(c(/C=N/N5CCN(C)CC5)c(O)c4c3C2=O)NC(=O)/C(C)=C\C=C\[C@H](C)[C@H](O)[C@@H](C)[C@@H](O)[C@@H](C)[C@H](OC(C)=O)[C@@H]1C` [RIF], the MIC in test [1] was over 32 µg/mL; in test [2] it was 0.5 µg/mL; in test [3] it was over 32 µg/mL; in test [5] it was over 32 µg/mL; in test [6], 0.25 µg/mL.
For `CC[C@H]1OC(=O)[C@H](C)[C@@H](O[C@H]2C[C@@](C)(OC)[C@@H](O)[C@H](C)O2)[C@H](C)[C@@H](O[C@@H]2O[C@H](C)C[C@H](N(C)C)[C@H]2O)[C@](C)(OC)C[C@@H](C)C(=O)[C@H](C)[C@@H](O)[C@]1(C)O` [CLA], the MIC in test [1] came to 32 µg/mL; in test [2] it was 2.0 µg/mL; in test [3], 16 µg/mL; in test [4], 32 µg/mL; in test [5], 16 µg/mL; in test [6], 0.5 µg/mL.
As for `C[C@@H]1CN(c2c(F)c(N)c3c(=O)c(C(=O)O)cn(C4CC4)c3c2F)C[C@H](C)N1` [SPAR], the MIC in test [1] was 2.0 µg/mL; in test [2] it was 2.0 µg/mL; in test [3], 2.0 µg/mL; in test [4], “≦0.125 μg/ml”; in test [5], 32 µg/mL; in test [6], 2.0 µg/mL.
As to `CCc1cc(C(N)=S)ccn1` [ETH], the MIC in test [1] is over 32 µg/mL; in test [2], 8.0 µg/mL; in test [3] it was over 32 µg/mL; in test [4], 1.0 µg/mL; in test [5], over 32 µg/mL; in test [6], over 32 µg/mL.
